For this assay, the system named is MCF-7 cell line. The assay is described as follows: MTT cytotoxicity assay, MCF-7. The format is cell-based, human. Here is the method: The cytotoxic activities against breast MCF-7 and liver HepG2 cancer cell lines for all the synthesized compounds 3a,b–17a,b were evaluated by MTT-based cytotoxicity assay. Sunitinib was selected as a reference standard in this study, and the results are presented as IC50 in Table 1.
The anticancer activities of the target compounds 3a,b–17a,b were quantitatively assessed using the MTT protocol against the MCF-7 and HepG2 cell lines, as described in the Supplementary Materials. […]
4.2. Biological investigation
4.2.1. In vitro cytotoxic activity assay
Citation: Abdelgawad, M.A.; Cell Line cells were obtained from the American Type Culture Collection. The cells Hayallah A.M.; Bukhari S.N.A.; were cultured using DMEM (Invitrogen/Life Technologies) supplemented with 10% FBS Musa A.; Elmowafy M.; (Hyclone,), 10 ug/ml of insulin (Sigma), and 1% penicillin‐streptomycin. All of the other Abdel‐Rahman, H.M.; chemicals and reagents were from Sigma or Invitrogen. Plate cells (cells density 1.2 – 1.8 Abd El‐Gaber, M.K. Design, × 10,000 cells/well) in a volume of 100μl complete growth medium + 100 μl of the tested Synthesis, Molecular Modeling, and compound per well in a 96‐well plate for 24 hours before the MTT assay. The tested com‐ Anticancer Evaluation of New pounds were dissolved in DMSO just before the test.
VEGFR‐2 Inhibitors Based on the Indolin‐2‐One Scaffold. 4.2.1.1. Cell culture protocol
Pharmaceuticals 2022, 15, x. The culture medium was removed to a centrifuge tube. The cell layer was briefly https://doi.org/10.3390/xxxxx rinsed with 5 mL of 0.25% (w/v) Trypsin and 3 mL of 0.53 mM EDTA solution to remove Academic Editor(s): Mary J. Meegan all traces of serum which contains Trypsin inhibitor. Next, 2.0 to 3.0 ml of Trypsin EDTA Received: 18 October 2022 solution was added to the flask and cells were observed under an inverted microscope Accepted: 9 November 2022 until the cell layer was dispersed (usually within 5 to 15 minutes). Then, 6.0 to 8.0 mL of Published: 14 November 2022 complete growth medium was added and cells aspirated by gently pipetting. The cell suspension was transferred to the centrifuge tube with the medium and cells from step 1, Publisher’s Note: MDPI stays neu‐and centrifuged at approximately 125 xg for 5 to 10 minutes. The supernatant was dis‐ tral with regard to jurisdictional carded and the cell pellet was suspended in fresh growth medium. Appropriate aliquots claims in published maps and institu‐ of the cell suspension were added to new culture vessels and incubated at 37°C for 24 hrs. tional affiliations. After treatment of cells with the serial concentrations of the compound to be tested, incu‐ bation was carried out for 48 h at 37 °C. The plates were examined under an inverted mi‐ croscope and proceeded for the MTT assay […]
Submitted for possible open access 4.2.1.2. […]
HepG‐2) were used in this test. At first, the cell lines were cultured in RPMI‐1640 medium Pharmaceuticals 2022, 15, x. https://doi.org/10.3390/xxxxx. www.mdpi.com/journal/pharmaceuticals […]
Pharmaceuticals 2022, 15, x FOR PEER REVIEW 2 of 22 with 10% fetal bovine serum. Antibiotics (100 units/ml penicillin and100 μg/ml strepto‐ mycin) were added at 37 °C in a 5% CO2 incubator. The cell lines were seeded in a 96‐well plate at a density of 1.0 x 10^4 cells / well at 37 °C for 48 h under 5% CO2. After incubation, the cells were treated with different concentrations of the synthesized compounds and incubated for 24 h. After 24 h of drug treatment, 20 μl of MTT solution (5mg/ml) was added and incubated for 4 h. 100 μl of dimethyl sulfoxide (DMSO) was added into each well to dissolve the formed purple formazan. The colored solution was measured and recorded at an absorbance of 570 nm using a plate reader (EXL 800, USA). The relative cell viability was calculated in percentage as (A570 of treated samples/A570 of untreated sam‐ ple) X 100. The half maximal inhibitory concentration (IC50) values were presented using […]
Background: Tetrazolium assays rely on reduction of a dye to a coloured formazan, in cell work by metabolically active cells.

A word on the IC50: it is the concentration that inhibits the measured activity by half.

`O=C1Nc2ccccc2C1=Nc1ccc(C(=O)NNC(=S)Nc2ccccc2)cc1` [Compound 17a, 2-(4-((2-Oxoindolin-3-ylidene)amino)benzoyl)-N-phenylhydrazinecarbothioamide]: the IC50 (Homo sapiens, MCF7, MTT assay, mean ± SD of three experiments) was determined as 1440 ± 110 nM. Besides, the “fold more potent than sunitinib, MCF-7” value (ratio of IC50 to sunitinib) is recorded as “three-fold”.

The values are drawn from publication PMC9698773, “Design, Synthesis, Molecular Modeling, and Anticancer Evaluation of New VEGFR-2 Inhibitors Based on the Indolin-2-One Scaffold” (Pharmaceuticals, 2022).
